From the supplement of paper PMC13207355

Tests used:
Conditions in all cases: exposure time: 72 h
E21 [1] = patient-derived glioblastoma stem cells of mesenchymal subtype; assay: phenotypic distance (Euclidean, principal components) from DMSO controls (arbitrary units); higher = stronger morphological change
E34 [2] = patient-derived glioblastoma stem cells of proneural subtype; assay: as above
E13 [3] = patient-derived glioblastoma stem cells of classical subtype; assay: as above
E57 [4] = patient-derived glioblastoma stem cells of mesenchymal subtype; assay: as above
E28 [5] = patient-derived glioblastoma stem cells of classical subtype; assay: as above
E31 [6] = patient-derived glioblastoma stem cells of proneural subtype; assay: as above
FT3469 [7] = normal neural stem cell line; assay: as above
E21 [8] = assay: surviving fraction (nuclei count normalised to DMSO); higher = more cells surviving (less toxic)
E34 [9] = assay: as above
E13 [10] = assay: as above
E57 [11] = assay: as above
E28 [12] = assay: as above
E31 [13] = assay: as above
FT3469 [14] = assay: as above
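Throughout, for phenotypic distance (Euclidean, principal components) from DMSO controls: cell Painting imaging in 384-well plates, CellProfiler features reduced to at least 20 principal components, Euclidean distance versus same-plate DMSO vehicle wells (0.1% v/v), median over six images per well.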
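Throughout, for surviving fraction (nuclei count normalised to DMSO): nuclei counted by high-content imaging of Hoechst-stained cells in laminin-coated 384-well plates, relative to 0.1% DMSO vehicle wells, with staurosporine as cell-death control.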

Nc1ccn([C@@H]2O[C@H](CO)[C@@H](O)[C@@H]2O)c(=O)n1 [Cytarabine]
Conditions | phenotypic distance | surviving fraction
E13 [3], 4.1 nM | 0.95 | –
E13 [3], 12.3 nM | 1.36 | –
E13 [3], 37 nM | 1.77 | –
E13 [3], 111.1 nM | 2.69 | –
E13 [3], 333.3 nM | 4.49 | –
E13 [3], 1000 nM | 4.63 | –
E13 [3], 3000 nM | 4.85 | –
E13 [10], 4.1 nM | – | 0.893
E13 [10], 12.3 nM | – | 0.843
E13 [10], 37 nM | – | 0.673
E13 [10], 111.1 nM | – | 0.645
E13 [10], 333.3 nM | – | 0.42
E13 [10], 1000 nM | – | 0.448
E13 [10], 3000 nM | – | 0.389
E21 [1], 4.1 nM | 1.63 | –
E21 [1], 12.3 nM | 2.01 | –
E21 [1], 37 nM | 2.73 | –
E21 [1], 111.1 nM | 3.44 | –
E21 [1], 333.3 nM | 4.54 | –
E21 [1], 1000 nM | 4.75 | –
E21 [1], 3000 nM | 5.65 | –
E21 [8], 4.1 nM | – | 0.787
E21 [8], 12.3 nM | – | 0.77
E21 [8], 37 nM | – | 0.649
E21 [8], 111.1 nM | – | 0.533
E21 [8], 333.3 nM | – | 0.339
E21 [8], 1000 nM | – | 0.236
E21 [8], 3000 nM | – | 0.154
E28 [5], 4.1 nM | 1.71 | –
E28 [5], 12.3 nM | 1.24 | –
E28 [5], 37 nM | 1.72 | –
E28 [5], 111.1 nM | 2.6 | –
E28 [5], 333.3 nM | 2.45 | –
E28 [5], 1000 nM | 2.47 | –
E28 [5], 3000 nM | 3.27 | –
E28 [12], 4.1 nM | – | 0.778
E28 [12], 12.3 nM | – | 0.775
E28 [12], 37 nM | – | 0.542
E28 [12], 111.1 nM | – | 0.586
E28 [12], 333.3 nM | – | 0.474
E28 [12], 1000 nM | – | 0.511
E28 [12], 3000 nM | – | 0.333
E31 [6], 4.1 nM | 1.02 | –
E31 [6], 12.3 nM | 1.8 | –
E31 [6], 37 nM | 1.75 | –
E31 [6], 111.1 nM | 3.19 | –
E31 [6], 333.3 nM | 3.48 | –
E31 [6], 1000 nM | 3.7 | –
E31 [6], 3000 nM | 4.49 | –
E31 [13], 4.1 nM | – | 0.861
E31 [13], 12.3 nM | – | 0.637
E31 [13], 37 nM | – | 0.463
E31 [13], 111.1 nM | – | 0.312
E31 [13], 333.3 nM | – | 0.149
E31 [13], 1000 nM | – | 0.127
E31 [13], 3000 nM | – | 0.126
E34 [2], 4.1 nM | 1.44 | –
E34 [2], 12.3 nM | 1.82 | –
E34 [2], 37 nM | 2.13 | –
E34 [2], 111.1 nM | 3.16 | –
E34 [2], 333.3 nM | 3.2 | –
E34 [2], 1000 nM | 3.33 | –
E34 [2], 3000 nM | 3.62 | –
E34 [9], 4.1 nM | – | 0.892
E34 [9], 12.3 nM | – | 0.803
E34 [9], 37 nM | – | 0.723
E34 [9], 111.1 nM | – | 0.687
E34 [9], 333.3 nM | – | 0.555
E34 [9], 1000 nM | – | 0.514
E34 [9], 3000 nM | – | 0.466
E57 [4], 4.1 nM | 2.41 | –
E57 [4], 12.3 nM | 3.28 | –
E57 [4], 37 nM | 4.72 | –
E57 [4], 111.1 nM | 6.26 | –
E57 [4], 333.3 nM | 7.13 | –
E57 [4], 1000 nM | 6.77 | –
E57 [4], 3000 nM | 6.62 | –
E57 [11], 4.1 nM | – | 0.687
E57 [11], 12.3 nM | – | 0.62
E57 [11], 37 nM | – | 0.443
E57 [11], 111.1 nM | – | 0.316
E57 [11], 333.3 nM | – | 0.179
E57 [11], 1000 nM | – | 0.179
E57 [11], 3000 nM | – | 0.161
FT3469 [7], 4.1 nM | 1.13 | –
FT3469 [7], 12.3 nM | 1.74 | –
FT3469 [7], 37 nM | 1.5 | –
FT3469 [7], 111.1 nM | 1.8 | –
FT3469 [7], 333.3 nM | 2.13 | –
FT3469 [7], 1000 nM | 1.94 | –
FT3469 [7], 3000 nM | 1.69 | –
FT3469 [14], 4.1 nM | – | 0.758
FT3469 [14], 12.3 nM | – | 0.684
FT3469 [14], 37 nM | – | 0.654
FT3469 [14], 111.1 nM | – | 0.753
FT3469 [14], 333.3 nM | – | 0.684
FT3469 [14], 1000 nM | – | 0.553
FT3469 [14], 3000 nM | – | 0.62
